Structures are written as SMILES. Values after ≈ are worked out from the molar mass of the structure shown.

The subject of data set [1] is Enterococcus faecalis 416 strain. Description: Propensity to resistance development (resistant colonies per plate). To be noted: E. faecalis 416 at 10^8 CFU, compound concentration 5 mcg/ml, 48 hours at 35° C. The class given is cell-based. The procedure: Enterococcus faecalis 416 strain at 10^8 CFU density level was spirally plated on Mueller Hinton agar containing 5 mcg/ml each of linezolid and representative compound of the invention. Plates were incubated at 35° C. for 48 hours and number of resistant colonies developed in presence of respective compounds were counted by automated counter.

Data set [2] has as its system SPN 744 LNZR. Description: MIC determination, linezolid resistant SPN 744 LNZR. To be noted: Streptococcus pneumoniae, read-out: MIC SPN744 LNZR. The class given is cell-based. The procedure:
(§1) Infecting doses of organisms given by intraperitoneal route in 5% hog gastric mucin were 10^3-10^4 CFU (colony forming units)/animal for SPN 6303 and 10^8 CFU/animal for MRSA-32. In case of MRSA-32, Linezolid was administered by oral route, 1 and 4 h post infection, BID (twice a day) for 1 day and for SPN 6303 BID for 2 days. […] MICs of Methicillin Resistant Staphylococcus aureus-32 Linezolid resistant (MRSA-32 LNZR), S. pneumoniae 744 Linezolid resistant (SPN 744 LNZR) and parent Linezolid sensitive strains MRSA-32 and SPN 6303 were determined for Linezolid by NCCLS agar dilution method.
(§2) Cultures were further diluted 1:10 in Mueller Hinton broth. Using Denley's mutipoint inoculator, 10^4 cells were deposited on Mueller Hinton agar (Difco) containing range of 2 fold dilutions of test compounds. […] MIC is defined as minimum drug concentration that inhibits test organisms. For determining MIC of test compounds against Streptococcus pneumoniae, Mueller Hinton agar containing 5% sheep blood was employed.

The test system of data set [3] is SPN 49619. Description: MIC determination, linezolid sensitive SPN 49619. The class given is cell-based. The following applies: Streptococcus pneumoniae; linezolid sensitive strain, Table 3.
In data set [4] the test system is E. faecium 367 LNZR. Description: MIC determination, linezolid resistant E. faecium 367 LNZR. The following applies: Enterococcus faecium, read-out: MIC E. faecium 367 LNZR. The class given is cell-based. As for the experimental part:
E. faecium ATCC 19434 strain at a cell density of 10^6/ml was inoculated in Mueller Hinton broth medium containing Linezolid at a concentration of 5 and 7.5 mcg/ml. The stationary culture was incubated at 37° C. and inspected at every 24 hours to assess the formation of turbidity due to the onset of bacterial growth. […] A 50 microliter sample of turbid flask was plated on Mueller Hinton agar medium incorporated with linezolid at 7.5 mcg/ml. The agar plates were incubated for 48 hours at 37° C. for the formation of discrete colonies of linezolid-resistant strain of E. faecium (E. faecium 367 LNZR). MICs of resistant mutant E. faecium 367 LNZR and parent strain E. faecium ATCC 19434 were determined for linezolid by NCCLS method.
as §2

The test system of data set [5] is S. aureus MRSA-32 LNZR. Description: MIC determination, linezolid resistant S. aureus MRSA-32 LNZR. The class given is cell-based. The following applies: Staphylococcus aureus, 24 h, read-out: MIC MRSA 32 LNZR. The procedure:
as §1, §2

Data set [6] concerns MRSA 032. The experiment in a line: MIC determination, linezolid sensitive MRSA 032 (MRSA-32). The following applies: Staphylococcus aureus, read-out: MIC MRSA 32. The class given is cell-based. The procedure:
as §1, §2

As to `CC(=O)NC[C@H]1CN(c2ccc(N3CCC(=CC#N)C(F)C3)c(F)c2)C(=O)O1` (mixture of isomers) [Example 56, (S)-N-{3-[4-(4-cyanomethylidene-3-fluoropiperidin-1-yl)-3-fluorophenyl]-2-oxo-oxazolidin-5-ylmethyl}-acetamide], the No. of colonies/plate in data set [1] came out at 0.

On to `CC(=O)NC[C@H]1CN(c2ccc(N3CC/C(=C\C#N)C(F)C3)c(F)c2)C(=O)O1` (stereo partly drawn) [56 (E), E-(S)-N-{3-[4-(4-cyanomethylidene-3-fluoropiperidin-1-yl)-3-fluorophenyl]-2-oxo-oxazolidin-5-ylmethyl}-acetamide], for which the MIC in data set [2] is 6.25 µg/mL (≈ 16 µM); in data set [3] it was 0.8 µg/mL (≈ 2.05 µM); in data set [4] it was 6.25 µg/mL (≈ 16 µM); in data set [5], 12.5 µg/mL (≈ 32 µM); in data set [6], 0.8 µg/mL (≈ 2.05 µM).

In the case of `CC(=O)NC[C@H]1CN(c2ccc(N3CC/C(=C/C#N)C(F)C3)c(F)c2)C(=O)O1` (stereo partly drawn) [56 (Z), Z-(S)-N-{3-[4-(4-cyanomethylidene-3-fluoropiperidin-1-yl)-3-fluorophenyl]-2-oxo-oxazolidin-5-ylmethyl}-acetamide], the MIC in data set [2] came to 12.5 µg/mL (≈ 32 µM); in data set [3], 0.8 µg/mL (≈ 2.05 µM); in data set [4], 6.25 µg/mL (≈ 16 µM); in data set [5], 25 µg/mL (≈ 64 µM); in data set [6], 0.8 µg/mL (≈ 2.05 µM).

For the compound `CC(=S)NC[C@H]1CN(c2ccc(N3CCC(=CC#N)CC3)c(F)c2)C(=O)O1` [Example 45, (S)-N-{3-[4-(4-cyanomethylidene-piperidin-1-yl)-3-fluorophenyl]-2-oxo-oxazolidin-5-ylmethyl}-thioacetamide], the MIC in data set [2] stood at 3.12 µg/mL (≈ 8.03 µM); in data set [3], 0.2 µg/mL (≈ 0.515 µM); in data set [5], 3.12 µg/mL (≈ 8.03 µM); in data set [6], 0.2 µg/mL (≈ 0.515 µM).

For the compound `N#C/C=C1\CCN(c2ccc(N3C[C@H](CNC(=O)C(F)F)OC3=O)cc2F)CC1F` (stereo partly drawn) [Example 57, (S)-N-{3-[4-(4-cyanomethylidene-3-fluoropiperidin-1-yl)-3-fluorophenyl]-2-oxo-oxazolidin-5-ylmethyl}-difluoroacetamide], the results for the MIC in data set [2], in data set [4] and in data set [5] were 6.25 µg/mL (≈ 14.7 µM), 6.25 µg/mL (≈ 14.7 µM) and 12.5 µg/mL (≈ 29.3 µM), respectively.

For the compound `CC(=S)NC[C@H]1CN(c2ccc(N3CC/C(=C\C#N)C(F)C3)c(F)c2)C(=O)O1` (stereo partly drawn) [Example 60, (S)-N-{3-[4-(4-cyanomethylidene-3-fluoropiperidin-1-yl)-3-fluorophenyl]-2-oxo-oxazolidin-5-ylmethyl}-thioacetamide], the minimum inhibitory concentration (MIC) in data set [2] came out at 3.12 µg/mL (≈ 7.68 µM); in data set [3] it was 0.1 µg/mL (≈ 0.246 µM); in data set [4], 1.56 µg/mL (≈ 3.84 µM); in data set [5], 6.25 µg/mL (≈ 15.4 µM); in data set [6] it was 0.25 µg/mL (≈ 0.615 µM).

As for `COC(=S)NC[C@H]1CN(c2ccc(N3CC/C(=C\C#N)C(C)C3)c(F)c2)C(=O)O1` (stereo partly drawn) [Example 67, (S)-N-{3-[4-(4-cyanomethylidene-3-methylpiperidin-1-yl)-3-fluorophenyl]-2-oxo-oxazolidin-5-ylmethyl}-methylthiocarbamate], the MIC in data set [2] was 6.25 µg/mL (≈ 14.9 µM); in data set [3], 0.4 µg/mL (≈ 0.956 µM); in data set [4] it was 3.12 µg/mL (≈ 7.46 µM); in data set [5], 12.5 µg/mL (≈ 29.9 µM); in data set [6], 0.8 µg/mL (≈ 1.91 µM).

On to `CC1CN(c2ccc(N3C[C@H](CNC(N)=S)OC3=O)cc2F)CC/C1=C\C#N` (stereo partly drawn) [Example 68, (S)-N-{3-[4-(4-cyanomethylidene-3-methylpiperidin-1-yl)-3-fluorophenyl]-2-oxo-oxazolidin-5-ylmethyl}-thiocarbamide], for which the MIC in data set [2] is 3.12 µg/mL (≈ 7.73 µM); in data set [3] it was 0.4 µg/mL (≈ 0.991 µM); in data set [4], 3.12 µg/mL (≈ 7.73 µM); in data set [5], 6.25 µg/mL (≈ 15.5 µM); in data set [6], 0.4 µg/mL (≈ 0.991 µM).

As for `CC(C#N)=C1CCN(c2ccc(N3C[C@H](CNC(=O)C(F)F)OC3=O)cc2F)CC1` [Example 77, (S)-N-{3-[4-(4-(1-cyanoethylidene)-piperidin-1-yl)-3-fluorophenyl]-2-oxo-oxazolidin-5-ylmethyl}-difluoroacetamide], the MIC came to 6.25 µg/mL (≈ 14.8 µM) in data set [2], 6.25 µg/mL (≈ 14.8 µM) in data set [4] and 12.5 µg/mL (≈ 29.6 µM) in data set [5].

For `CC(=S)NC[C@H]1CN(c2ccc(N3CCC(=C(C)C#N)CC3)c(F)c2)C(=O)O1` [Example 84, (S)-N-{3-[4-(4-(1-cyanoethylidene)-piperidin-1-yl)-3-fluorophenyl]-2-oxo-oxazolidin-5-ylmethyl}-thioacetamide], the minimum inhibitory concentration (MIC) in data set [2] was 1.56 µg/mL (≈ 3.88 µM); in data set [3] it was 0.2 µg/mL (≈ 0.497 µM); in data set [4] it was 1.56 µg/mL (≈ 3.88 µM); in data set [5], 1.56 µg/mL (≈ 3.88 µM); in data set [6], 0.4 µg/mL (≈ 0.994 µM).

`CCC(C#N)=C1CCN(c2ccc(N3C[C@H](CNC(C)=O)OC3=O)cc2F)CC1` [Example 89, (S)-N-{3-[4-(4-(1-cyanopropylidene)-piperidin-1-yl)-3-fluorophenyl]-2-oxo-oxazolidin-5-ylmethyl}-acetamide]: the MIC in data set [2] turned out to be 12.5 µg/mL (≈ 31.2 µM); in data set [4], 6.25 µg/mL (≈ 15.6 µM); in data set [5] it was 25 µg/mL (≈ 62.4 µM).

Take `CCC(C#N)=C1CCN(c2ccc(N3C[C@H](CNC(C)=S)OC3=O)cc2F)CC1` [Example 93, (S)-N-{3-[4-(4-(1-cyanopropylidene)-piperidin-1-yl)-3-fluorophenyl]-2-oxo-oxazolidin-5-ylmethyl}-thioacetamide]: the MIC was 3.12 µg/mL (≈ 7.49 µM) in data set [2]; 0.2 µg/mL (≈ 0.48 µM) in data set [3]; 1.56 µg/mL (≈ 3.75 µM) in data set [4]; 6.25 µg/mL (≈ 15 µM) in data set [5]; 0.4 µg/mL (≈ 0.96 µM) in data set [6].

For the compound `CC(=O)NC[C@H]1CN(c2ccc(N3CCC(=C(C#N)c4cccs4)CC3)c(F)c2)C(=O)O1` [Example 105, (S)-N-{3-[4-(4-(1-cyano-1-(thiophen-2-yl)-methylidene)-piperidin-1-yl)-3-fluorophenyl]-2-oxo-oxazolidin-5-ylmethyl}-acetamide], the MIC in data set [3] and in data set [6] was 0.8 µg/mL (≈ 1.76 µM) in each case.

Take `CSC(C#N)=C1CCN(c2ccc(N3C[C@H](CNC(C)=O)OC3=O)cc2F)CC1` [Example 115, (S)-N-{3-[4-(4-(1-cyano-1-methylmercapto-methylidene)-piperidin-1-yl)-3-fluorophenyl]-2-oxo-oxazolidin-5-ylmethyl}-acetamide]: the MIC is 6.25 µg/mL (≈ 14.9 µM) in data set [2]; 0.8 µg/mL (≈ 1.91 µM) in data set [3]; 3.12 µg/mL (≈ 7.46 µM) in data set [4]; 12.5 µg/mL (≈ 29.9 µM) in data set [5]; 0.8 µg/mL (≈ 1.91 µM) in data set [6].

`CC(=O)NC[C@H]1CN(c2ccc(N3CCC(=C(Br)C#N)CC3)c(F)c2)C(=O)O1` [Example 117, (S)-N-{3-[4-(4-(1-cyano-1-bromo-methylidene)-piperidin-1-yl)-3-fluorophenyl]-2-oxo-oxazolidin-5-ylmethyl}-acetamide]: the MIC in data set [2] came out at 6.25 µg/mL (≈ 13.8 µM); in data set [3], 0.4 µg/mL (≈ 0.886 µM); in data set [4] it was 3.12 µg/mL (≈ 6.91 µM); in data set [5] it was 12.5 µg/mL (≈ 27.7 µM); in data set [6] it was 0.8 µg/mL (≈ 1.77 µM).

`CC(=S)NC[C@H]1CN(c2ccc(N3CCC(=C(C#N)c4ccccn4)CC3)c(F)c2)C(=O)O1` [Example 118, (S)-N-{3-[4-(4-(1-cyano-1-(pyridin-2-yl)-methylidene)-piperidin-1-yl)-3-fluorophen]-2-oxo-oxazolidin-5-ylmethyl}-thioacetamide]: the MIC in data set [3] was 0.4 µg/mL (≈ 0.859 µM); in data set [6] it was 0.8 µg/mL (≈ 1.72 µM).

With `CC(=S)NC[C@H]1CN(c2ccc(N3CCC(=C(C#N)C#N)CC3)c(F)c2)C(=O)O1` [Example 119, (S)-N-{3-[4-(4-(1,1-dicyano-methylidene)-piperidin-1-yl)-3-fluorophenyl]-2-oxo-oxazolidin-5-ylmethyl}-thioacetamide], the MIC stood at 0.8 µg/mL (≈ 1.93 µM) in data set [3] and 0.4 µg/mL (≈ 0.967 µM) in data set [6].

As for `CC(=S)NC[C@H]1CN(c2ccc(N3CCC(=C(C#N)C(=S)N4CCOCC4)CC3)c(F)c2)C(=O)O1` [Example 121, (S)-N-{3-[4-(4-(1-cyano-1-(morpholin-1-yl-thiocarbonyl)-methylidene)-piperidin-1-yl)-3-fluorophenyl]-2-oxo-oxazolidin-5-ylmethyl}-thioacetamide], the MIC is 1.56 µg/mL (≈ 3.01 µM) in data set [2], 0.2 µg/mL (≈ 0.386 µM) in data set [3], 6.25 µg/mL (≈ 12.1 µM) in data set [5] and 0.4 µg/mL (≈ 0.773 µM) in data set [6].

With `CC(=O)NC[C@H]1CN(c2ccc(N3CC=C(CC#N)CC3)c(F)c2)C(=O)O1` [Example 159, (S)-N-{3-[4-(4-cyanomethyl-3,4-dehydropiperidin-1-yl)-3-fluorophenyl]-2-oxo-oxazolidin-5-ylmethyl}-acetamide], the melting point came to 132 °C. In data set [1], the No. of colonies/plate is 1.5 × 10^1.
